According to the OPERA property sets (Mansouri et al. 2018):

Conditions: for log10 BCF / log10 biotransformation half-life (days): fish

SMILES	boiling point [°C]	melting point [°C]	other results
Clc1cc2cccc(Cl)c2c(Cl)c1Cl	–	–	log10 Koa: 8.65
CCN(O)CC	133	10	log10 vapour pressure (mmHg): 0.526; ready biodegradability: not readily biodegradable
COc1ccc2c(c1O)-c1c3c(cc4c1[C@H](C2)N(C)CC4)OCO3	–	200	–
C=Cc1scnc1C	–	-15	–
c1ccc(-c2cccc(-c3ccccn3)n2)nc1	–	90	–
CC1(C)CC1	20.6	-109	–
CC(C)=CC(=O)C=C(C)C	198	28	log10 vapour pressure (mmHg): -0.557
COc1ccc(C(=NCc2ccccc2)c2ccc(OC)cc2)cc1	–	90	–
Clc1cc2c(Cl)cc(Cl)c(Cl)c2c(Cl)c1Cl	–	–	log10 Koa: 9.67; log10 vapour pressure (mmHg): -6.46
Clc1ccc2ccc(Cl)cc2c1	–	–	log10 Koa: 6.7
NNc1cc(Cl)ccc1Cl	–	102	–
O=[N+]([O-])c1c(F)c(F)c(F)c(F)c1F	160	–	–
CCCCCCCCCCCCN1CC(C(=O)OC)CC1=O (centres undefined)	–	27.5	–
CCC(C)=C(C)C	97.5	-118	log10 vapour pressure (mmHg): 1.7
CCCCCCCCCCOc1c(OC)cc(C(N)=O)cc1OC	–	122	–
COc1c(F)c(F)c(F)c(F)c1F	138	-37	–
CC(=O)Nc1ccc(N)cc1	267	166	ready biodegradability: readily biodegradable
CCSC(=O)N(CC(C)C)CC(C)C	–	–	log10 Koc (L/kg): 2.11; log10 vapour pressure (mmHg): -1.89
NCCCCCCCCCCC(=O)O	–	191	–
CON(C)C(=O)Nc1ccc(Cl)cc1	–	81.5	log10 Koc (L/kg): 2.1; log10 vapour pressure (mmHg): -3.82; log10 BCF: 1.15
CCC(=O)C=Cc1ccccc1	–	38.5	–
Cc1ccc2[nH]cnc2c1	–	116	–

SMILES	boiling point [°C]	melting point [°C]	other results
O=S(=O)([O-])CCN1CC[NH+](CCO)CC1	–	234	–
CC(C)(C)C(=O)CC(=O)C(F)(F)C(F)(F)C(F)(F)F	–	38	–
CCCOCOCCC	140	-97.3	–
Oc1ccc(Br)cc1Br	238	38	ready biodegradability: not readily biodegradable
C=CCCCCCCCCCCCCCCC	300	11.5	log10 vapour pressure (mmHg): -3.34
COc1ccccc1OCC(O)CO (centres undefined)	–	78.5	–
CCOC(C)C	54.1	–	–
CCN1C(=O)C=CC1=O	–	45.5	–
Oc1nc(O)c2nccnc2n1	–	348	–
Clc1c2ccccc2nc2ccccc12	–	121	–
OC(COc1ccccc1)COc1ccccc1	–	81.5	–
c1ccc(Nc2ccc3ccccc3c2)cc1	396	108	ready biodegradability: not readily biodegradable; log10 BCF: 2.37; log10 biotransformation half-life (days): -0.41
N[C@H](CCS)C(=O)O (racemic)	–	226	–
Brc1ccccc1Oc1ccccc1	–	–	log10 Koa: 7.24
CC(C)(C)OC(=O)CC(=O)OC(C)(C)C	–	-6	–
CCCCCCN(CCCCCC)CCCCCC	262	–	–
CCCCN(CC)C(=O)SCCC	202	-22	log10 Koc (L/kg): 2.8; log10 vapour pressure (mmHg): -1.05; ready biodegradability: readily biodegradable
CC(C)(C)c1nnc(NS(=O)(=O)c2ccc(N)cc2)s1	–	222	–
Cn1c(=O)n(C)c(=O)n(C)c1=O	274	176	–
CCC=CCC	66.8	-114	log10 vapour pressure (mmHg): 2.22
C=C[Si]1(C)O[Si](C)(C=C)O[Si](C)(C=C)O[Si](C)(C=C)O1 (centres undefined)	224	-43.5	–
COC(=O)c1ccc(OC)c(OC)c1	283	60.8	–

SMILES	boiling point [°C]	melting point [°C]	other results
CC(C)(C)CC(C)(C)c1ccc(O)cc1	–	84.5	log10 vapour pressure (mmHg): -3.32; ready biodegradability: not readily biodegradable; log10 BCF: 2.46; log10 biotransformation half-life (days): -0.04
CC[Si](Cl)(CC)CC	144	–	log10 vapour pressure (mmHg): 0.83
C=Cc1cccc(CC)c1	190	-101	log10 vapour pressure (mmHg): -0.0947; ready biodegradability: not readily biodegradable
Fc1cc(F)nc(F)c1	94.5	–	–
O=C1C(Cl)=C(Nc2ccccc2)C(=O)c2ccccc21	–	215	–
ClCCOc1ccccc1	218	28	–
Cc1cccc(CBr)c1	212	–	–
OC1CCCCC1c1ccccc1 (centres undefined)	228	–	log10 vapour pressure (mmHg): -1.44
COc1cc2c(c(OC)c1OC)-c1ccc(OC)c(=O)cc1[C@@H](NC(C)=O)CC2	–	156	–
C1COC1	47.6	-97	log10 vapour pressure (mmHg): 2.51
CCCCCCCCCCCCCCCCCCc1ccccc1	408	29	–
C=C(C)[C@@H]1CC[C@@H](C)[C@@H](O)C1	224	–	–
CC1(C)CC[C@]2(C(=O)O)CC[C@]3(C)C(=CC[C@@H]4[C@@]5(C)CC[C@H](O)[C@@](C)(C=O)[C@@H]5CC[C@]43C)[C@@H]2C1	–	275	–
CCOC(=S)SSC(=S)OCC	–	30	–
C=C(Cl)CO	–	–	ready biodegradability: readily biodegradable
Cc1ccccc1I	212	–	log10 vapour pressure (mmHg): -0.344
c1ccc(CN(Cc2ccccc2)c2ccccc2)cc1	–	69	–
O=C(O)c1cccc2cccc(Cl)c12	–	172	–
Brc1ccc(Oc2cccc(Br)c2)cc1	–	–	log10 Koa: 8.57
NCC1CCCC(CN)C1 (centres undefined)	220	–	ready biodegradability: not readily biodegradable
Clc1cc(Cl)c(-c2ccccc2)c(Cl)c1	–	–	log10 vapour pressure (mmHg): -3.15
